Patent US20240316196A1, “METHODS AND COMPOSITIONS FOR DIFFERENTIATION OF PLURIPOTENT STEM CELLS AND DERIVED NATURAL KILLER CELLS” (NUWACELL BIOTECHNOLOGIES CO., LTD., priority 2022, published 2024)

What was measured:
Type in all cases: cell-based
[1] = system: K562 cells; assay: Cytotoxicity of Stage 3 iNK cells towards K562 cells (CFSE/7AAD assay); settings: added to Stage 3 medium (IL-10 20 ng/mL, IL-18 50 ng/mL); 4 hr co-culture, E:T 3:1 (FIG. 13A)
Description: hiPSCs were prepared as described in CN108373998B. On Day −1, Embryoid body (EB) formation (Stage 1-1) was carried out by placing individualized hiPSCs in E8 medium containing 10 μM Blebbistatin in T25 flasks on a bellydancer and culture overnight. On Day 0, lateral mesoderm differentiation (Stage 1-2) was initiated by changing the medium to a Stage 1-2 differentiation medium comprising IF-4 basal medium and supplemented with BMP4 (25 ng/mL), VEGF (15 ng/mL), bFGF (0.5 ng/mL) and CHIR99021 (4 μM) for 2 days. On Day 2, lateral mesoderm differentiation (Stage 1-3) continued for 1 day in a Stage 1-3 differentiation medium comprising IF-4 basal medium and supplemented with BMP4 (25 ng/mL), VEGF (50 ng/mL) and bFGF (0.5 ng/mL) and CHIR99021 (1 μM). On Day 3, HE specification (Stage 1-4) was initiated by adding a Stage 1-4 differentiation medium comprising IF-4 basal medium and supplemented with VEGF (15 ng/mL), bFGF (5 ng/mL), XAV939 (5 μM) for 1 day. […] On Day 11 of co-culture, iNK cells were collected and stained with CD56-PE antibody (BD, #555516), the percentage of CD56+ cells was analyzed by flow cytometry. The cytotoxicity of Stage 3 iNK cells towards K562 cells was detected by CFSE/7AAD assay after 4 hr co-culture at E:T of 3:1.

[2] = system: PBNK cells; assay: Expansion of PBNK cells from PBMCs (NK cell expansion fold; CD56+CD3− % by flow cytometry); settings: heparin sodium 0-50 μg/mL in NKSFM
Description: The effect of the concentration of nicotinamide (NAM) in an exemplary basal medium on NK cell expansion was evaluated. The above basal medium comprised the following components: IMDM (Sigma): RPMI1640 (Gibco) (50%: 50%); about 1.3 ng/mL of Cupric sulfate, about 3 μM of Ferric sulfate, about 0.432 μg/mL of Zinc sulfate, about 1-50 ng/mL of Na Selenite, about 110 μg/mL of Sodium pyruvate, 0.1-20 μg/mL of Insulin, 1-200 μg/mL of Transferrin, about 1%(v/v) of GlutaMAX-1, 0.1-20 mg/mL of HSA, 1-400 μM of MTG, about 80 μg/mL of Ascorbic acid and indicated concentration of NAM. Peripheral blood mononuclear cells (PBMCs) were isolated by density gradient centrifugation using Ficoll-Paque. On Day 0, PBMCs were plated at 1×10^6 cells/mL in a 48-well-plate in the basal medium with NAM (either 0, 1, 2, 2.5, 3, 3.5, 4, or 5 mM) and stimulated with the following reagents for 3 days: immobilized CD16 antibody (Biolegend, 302014) (135 ng/cm^2), IL-2 (700 IU/mL), IL-15 (10 ng/mL) and OK432 (0.01 KE/mL). On day 3, cells were re-suspended in the above basal medium supplemented with IL-2 (700 IU/mL) and IL-15 (10 ng/mL). Fresh medium was added every other day to maintain cell density below 2×10^6 cells/mL. Cells were collect on Day 14 and stained with CD56-PE and CD3-PerCP-Cy5.5 antibodies, the percentage of CD56^+CD3^− NK cells was analyzed by flow cytometry.
(§1) The effect of heparin sodium concentration in an exemplary NKSFM on NK cell expansion was also evaluated. NKSFM comprised the following components: IMDM (Sigma): DMEM/F12 (Gibco) (50%: 50%); about 20 μM of Ethanolamine, about 1-50 ng/mL of Na Selenite, about 110 μg/mL of Sodium pyruvate, 0.1-20 μg/mL of Insulin, 1-200 μg/mL of Transferrin, about 1%(v/v) of GlutaMAX-1, 0.1-20 mg/mL of Human serum albumin, 1-400 μM of MTG, about 80 μg/mL of Ascorbic acid, about 1-5 mM of NAM, 4%(v/v) of PLT, and indicated concentration of heparin sodium. PBMCs were isolated by density gradient centrifugation using Ficoll-Paque. On Day 0, PBMCs were plated at 1×10^6 cells/mL in a 48-well-plate in NKSFM with heparin sodium (0, 0.5, 1, 3, 10, 30, or 50 μg/mL) and stimulated with the following reagents for 3 days: immobilized CD16 antibody (Biolegend, 302014) (135 ng/cm^2), OK432 (0.01 KE/mL), NeoIL-2 (50 ng/mL), IL-12 (10 ng/mL), IL-18 (50 ng/mL). […] Cells were collect on Day 13 and stained with CD56-PE and CD3-PerCP-Cy5.5 antibodies, the percentage of CD56^+CD3^− NK cells was analyzed by flow cytometry. The specific lysis of K562 tumor cells by NK cells were assessed by CFSE/7-AAD cytotoxicity assay. […] After incubation for 4 hours, cells were stained with 7-AAD (Live/dead staining) and analyzed with flow cytometry.
The effect of PLT percentage (v/v) in an exemplary NKSFM on NK cell expansion was evaluated. […]

[3] = system: K562 tumor cells; assay: Specific lysis of K562 tumor cells by expanded NK cells (CFSE/7-AAD cytotoxicity assay); settings: heparin sodium 0-50 μg/mL in NKSFM; E:T 3:1, 4 hours (FIG. 3C)
Description: as §1, with “Ficoll-Paque.” for “Ficoll-Paque. On Day 0, PBMCs were plated at 1×10^6 cells/mL in a 48-well-plate in NKSFM with heparin sodium (0, 0.5, 1, 3, 10, 30, or 50 μg/mL) and stimulated with the following reagents for 3 days: immobilized CD16 antibody (Biolegend, 302014) (135 ng/cm^2), OK432 (0.01 KE/mL), NeoIL-2 (50 ng/mL), IL-12 (10 ng/mL), IL-18 (50 ng/mL).”
The effect of PLT percentage (v/v) in an exemplary NKSFM on NK cell expansion was evaluated. […] Cells were collect on Day 14 and stained with CD56-PE and CD3-PerCP-Cy5.5 antibodies, the percentage of CD56^+CD3^− NK cells was analyzed by flow cytometry. The specific lysis of K562 tumor cells by NK cells were assessed by CFSE/7-AAD cytotoxicity assay. […]

Row | Substance | cytotoxicity of iNK cells towards K562 cells [1] | NK cell expansion fold, effect of concentration ([2]; Day 13 (FIG. 3A)) | percentage of CD56^+CD3^− NK cells, effect of concentration ([2]; Day 13 (FIG. 3B)) | specific lysis of K562 tumor cells, effect of concentration [3]
1 | IL-10: interleukin added to Stage 3 expansion and maturation medium | significantly improve | – | – | –
2 | heparin sodium | – | significantly influences | minimal effect | minimal effect
